Source: US20050075398A1, “Neuroprotectin D1 protects against cellular apoptosis, stroke damage, alzheimer's disease and retinal diseases” (priority 2003, published 2005)

What was measured:
Bax gene expression = assay: HGU133 GeneChip DNA array in HN cells: Bax; type: cell-based, human; details: Aβ42 25 μM, DHA 50 nM or NPD1 50 nM, 18 h, nsc = no significant change
Text: Total RNA quality and abundance were profiled using RNA Nano LabChips (Caliper Technologies, Mountainview, Calif.; Agilent Technologies, Palo Alto, Calif.).
Biotinylated antisense cRNAs were synthesized from cDNA using the Superscript Choice System (Invitrogen) and Enzo Biorray High Yield RNA Transcript Labeling kits according to the manufacturer's protocols (Affymetrix) and as described in Colangelo, V., Schurr, J., Ball, M. J., Pelaez, R. P., Bazan, N. G., Lukiw, W. J. (2002) J. Neurosci. […] Probes were hybridized against HU133Av2 GeneChip DNA arrays that interrogate approximately 33,000 full-length mouse genes and expressed sequence tag (EST) clusters.
DNA arrays were scanned at 570 nm, and significant features were extracted using Data Mining Tool 3.0 (Affymetrix). Data analyses and graphic presentations were performed using Microarray Suite 5.0 (Affymetrix), GeneSpring 6.0 (Silicon Genetics, Redwood City, Calif.) and Adobe Photoshop 6.0 (Adobe Systems, San Jose, Calif.). Volcano plots were plotted representing total gene expression patterns as a function of fold-change as compared to expression patterns of age-matched controls as plotted against p, as calculated by an analysis of variance (ANOVA). […] Statistical significance was analyzed using a two-way factorial analysis of variance (p, ANOVA; Statistical Analysis System; SAS Institute, Cary, N.C. ).

IL-1β gene expression = assay: HGU133 GeneChip DNA array in HN cells: IL-1β; type: cell-based, human; details: Aβ42 25 μM, DHA 50 nM or NPD1 50 nM, 18 h, nsc = no significant change
COX-2 expression = assay: COX-2 mRNA abundance in ipsilateral hippocampus after MCA-O; type: in vivo, mouse; details: 1 h MCA-O, 2 h reperfusion, infused into third ventricle (NPD1 0.16 μg/ml)
Method: COX-2 RNA abundance in hippocampus and HN cells. Abundance of human-specific COX-1 and COX-2 RNA message was assayed using RT-PCR as described in Bazan, N. G., and Lukiw, W. J. (2002) J. Biol. Chem. 277, 30359-30367.
To determine COX-1 and COX-2 expression, mRNA abundance in the ipsilateral hippocampus was measured. […] A 3-fold increase of COX-2 was seen due to MCA-O reperfusion (FIG. 7C). The infusion of the precursor DHA as well as its product 10,17S-docosatriene (NPD1) inhibited COX-2 expression by 14% and 52%, respectively.

Bax = assay: Western blot of Bax in ARPE-19 cells under TNFα/H2O2; type: cell-based, human; details: 50 nM; 800 μM H2O2 along with TNFα, 6 h
Method: Analysis of pro- and anti-apoptotic proteins in ARPE-19 cells: Bcl-2 family proteins were analyzed by Western-blot analysis. In brief, 20-μg equivalents of each cell extract were subjected to electrophoresis on a 8-16% gel (Promega, Madison, Wis.) at 125 volts for 2 h. The proteins were transferred to nitrocellulose membrane at 30 volts for 1 h at 4° C. The membranes were subjected to treatment with primary antibodies of Bcl-2, Bcl-xL, Bax, and Bad for 1 h at room temperature, and probed 30 min with secondary antibody, goat anti-rabbit Ig:HRPO and HRP-conjugated anti-biotin antibody. (BD Sciences—Pharminogen, San Diego, Calif.) Then proteins were evaluated using an ECL kit. (Amersham Biosciences Corp., Piscataway, N.J.)
Using the same TNFα/H2O2 concentrations, Bcl-2 proteins were assayed. Cells were grown for 72 h after plating, placed in serum-free medium for 1 h, then incubated with TNFα/H2O2 for 6 h. Protein expression and Western-blot analysis were performed as described in Example 13. Data in FIGS. 14A, 14B, 14C and 14D represent four independent experiments with triplicate samples in each case. Anti-apoptotic protein Bcl-xL was enhanced in ARPE-19 cells by TNFα/H2O2 (800 μM) (FIG. 14B, first bar), whereas Bcl-2 was not changed (FIG. 14A, first bar).

Bcl-xL gene expression = assay: HGU133 GeneChip DNA array in HN cells: Bcl-xL; type: cell-based, human; details: Aβ42 25 μM, DHA 50 nM or NPD1 50 nM, 18 h, nsc = no significant change

## CC/C=C\C[C@H](O)\C=C/C=C/C=C/[C@H](O)C/C=C\C/C=C\CCC(=O)O [NPD1, 10,17S-docosatriene]
Bax gene expression
  Bax gene expression, fold change over untreated controls: nsc
IL-1β gene expression
  IL-1β gene expression, fold change over untreated controls: nsc
COX-2 expression
  inhibition of COX-2 expression (mRNA): 52%
Bax
  decrease of the up regulation of Bax: 65%
Bcl-xL gene expression
  Bcl-xL gene expression, fold change over untreated controls: +2.4 fold
